A word on the IC50: it is the concentration that gives 50% inhibition.

From ChEMBL document CHEMBL5136983, “How the structural properties of the indole derivatives are important in kinase targeted drug design?: A case study on tyrosine kinase inhibitors” (Bioorg Med Chem, 2022) come the findings set out here.

T1 sequence (P00533 whole entry): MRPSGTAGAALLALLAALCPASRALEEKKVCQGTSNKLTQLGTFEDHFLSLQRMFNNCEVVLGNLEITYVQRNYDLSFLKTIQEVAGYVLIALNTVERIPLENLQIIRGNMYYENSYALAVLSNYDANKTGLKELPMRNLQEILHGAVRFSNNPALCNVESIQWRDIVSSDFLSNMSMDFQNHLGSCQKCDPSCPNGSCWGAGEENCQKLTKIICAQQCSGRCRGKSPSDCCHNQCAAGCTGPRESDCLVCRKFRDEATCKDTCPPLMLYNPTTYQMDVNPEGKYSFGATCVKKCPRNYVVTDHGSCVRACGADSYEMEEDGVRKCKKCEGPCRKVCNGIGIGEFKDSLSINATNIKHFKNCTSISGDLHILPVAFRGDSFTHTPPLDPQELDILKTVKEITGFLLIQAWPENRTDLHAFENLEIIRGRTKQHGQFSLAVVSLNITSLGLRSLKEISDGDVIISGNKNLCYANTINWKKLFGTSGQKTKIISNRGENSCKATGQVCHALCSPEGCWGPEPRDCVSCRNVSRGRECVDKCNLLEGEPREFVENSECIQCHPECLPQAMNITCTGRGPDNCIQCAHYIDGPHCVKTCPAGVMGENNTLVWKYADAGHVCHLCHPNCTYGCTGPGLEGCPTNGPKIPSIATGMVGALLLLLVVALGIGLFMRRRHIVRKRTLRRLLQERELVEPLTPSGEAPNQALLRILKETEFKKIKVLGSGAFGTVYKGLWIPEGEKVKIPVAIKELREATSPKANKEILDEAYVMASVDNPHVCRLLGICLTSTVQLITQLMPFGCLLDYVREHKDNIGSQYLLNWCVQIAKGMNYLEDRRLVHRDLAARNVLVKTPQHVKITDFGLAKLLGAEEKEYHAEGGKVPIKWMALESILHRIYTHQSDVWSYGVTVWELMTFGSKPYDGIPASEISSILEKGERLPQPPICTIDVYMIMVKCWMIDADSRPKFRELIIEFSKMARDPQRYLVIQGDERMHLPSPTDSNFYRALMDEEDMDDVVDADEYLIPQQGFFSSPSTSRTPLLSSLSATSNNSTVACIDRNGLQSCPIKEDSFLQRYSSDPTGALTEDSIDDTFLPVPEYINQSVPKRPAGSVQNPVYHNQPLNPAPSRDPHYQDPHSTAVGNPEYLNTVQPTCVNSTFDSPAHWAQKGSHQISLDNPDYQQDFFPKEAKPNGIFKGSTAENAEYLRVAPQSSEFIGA
T2 sequence (P12931 2-536 limits assumed): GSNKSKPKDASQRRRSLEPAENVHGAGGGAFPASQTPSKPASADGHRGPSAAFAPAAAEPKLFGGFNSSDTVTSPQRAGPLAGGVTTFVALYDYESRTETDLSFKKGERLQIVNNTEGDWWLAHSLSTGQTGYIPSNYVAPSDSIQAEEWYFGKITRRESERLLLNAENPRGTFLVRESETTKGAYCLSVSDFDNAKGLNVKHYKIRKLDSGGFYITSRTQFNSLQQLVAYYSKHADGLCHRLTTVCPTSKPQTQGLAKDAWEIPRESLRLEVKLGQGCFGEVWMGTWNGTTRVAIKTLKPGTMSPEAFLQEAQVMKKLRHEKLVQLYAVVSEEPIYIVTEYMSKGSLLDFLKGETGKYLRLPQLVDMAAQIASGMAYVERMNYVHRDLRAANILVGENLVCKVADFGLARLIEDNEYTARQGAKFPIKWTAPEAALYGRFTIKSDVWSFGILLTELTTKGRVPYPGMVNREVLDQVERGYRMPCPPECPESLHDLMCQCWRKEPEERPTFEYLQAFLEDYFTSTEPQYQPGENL

Test system in one series: not listed separately
Briefly: Inhibition of v-src (unknown origin).
Take `Cn1c([Se][Se]c2c(C(=O)OC(C)(C)C)c3ccccc3n2C)c(C(=O)OC(C)(C)C)c2ccccc21`: inhibition was half-maximal at 1500 nM (IC50).
Turning to `CNC(=O)c1c(SSc2c(C(=O)NC)c3ccccc3n2C)n(C)c2ccccc12`, the IC50 stood at 6000 nM.
Still for that read-out and setting: the figure for `CN(C)CCNC(=O)c1c([Se][Se]c2c(C(=O)NCCN(C)C)c3ccccc3n2C)n(C)c2ccccc12` is 1800 nM; for `NC(Cc1c([Se][Se]c2[nH]c3ccccc3c2CC(N)C(=O)NCc2ccccc2)[nH]c2ccccc12)C(=O)NCc1ccccc1` (stereo unspecified) it is 2000 nM.
As for `CCN(CC)CCn1c([Se][Se]c2c(C(=O)NC)c3ccccc3n2CCN(CC)CC)c(C(=O)NC)c2ccccc21`, the half-maximal inhibitory concentration (IC50) was 1700 nM.
On the same count and under the same terms, the same measure for `NC(Cc1c(SSc2[nH]c3ccccc3c2CC(N)C(=O)NCc2ccccc2)[nH]c2ccccc12)C(=O)NCc1ccccc1` (stereo unspecified): 7000 nM; for `CNC(=O)c1c([Se][Se]c2c(C(=O)NC)c3ccccc3n2C)n(C)c2ccccc12`: 400 nM.

The subject of another series is HeLa. The series is described as follows: Antiproliferative activity against human HeLa cells assessed as cell growth inhibition. It counts as functional, cell-based.
On to `CCn1c(C)c(C(=O)NCc2ccc(F)cc2)c2cc(OCC(=O)NCCOc3ccccc3OC)ccc21`, for which the concentration for half-maximal inhibition (IC50) worked out at 6810 nM.

Another series relates to SW480. The series is described as follows: Antiproliferative activity against human SW480 cells assessed as cell growth inhibition. It counts as functional, cell-based.
Turning to `CCn1c(C)c(C(=O)NCc2ccc(F)cc2)c2cc(OCC(=O)NCCOc3ccccc3OC)ccc21`, the IC50 was determined as 13100 nM.

The test system of another series is A549. Briefly: Antiproliferative activity against human A549 cells assessed as cell growth inhibition. It counts as functional, cell-based.
As to `CCn1c(C)c(C(=O)NCc2ccc(F)cc2)c2cc(OCC(=O)NCCOc3ccccc3OC)ccc21`, the half-maximal inhibitory concentration (IC50) came to 4990 nM.

Test system in the next series: not listed separately
The series is described as follows: Inhibition of PDGF-BB-stimulated PDGFR autophosphorylation in mouse Swiss-3T3 cells treated for 2 hrs followed by PDGF-BB stimulation measured after 10 mins by immunoblot analysis. It counts as cell-based.
`COc1ccc2cc(C(=O)c3cc4ccccc4[nH]3)[nH]c2c1` gave an IC50 of 300 nM.
On the same count and under the same terms, the same measure for `COc1cccc2cc(C(=O)c3cc4ccccc4[nH]3)[nH]c12`: over 30000 nM.
On the same count and under the same terms, the figure for `CN(C)CCC(=O)Oc1ccc2[nH]c(C(=O)c3cc4ccccc4[nH]3)cc2c1` is 100 nM; for `Cc1ccc2[nH]c(C(=O)c3cc4ccccc4[nH]3)cc2c1` it is 7500 nM; for `COc1ccc2[nH]c(C(=O)c3cc4ccccc4[nH]3)cc2c1` it is 300 nM.
On the same count and under the same terms, the figure for `O=C(c1cc2ccccc2[nH]1)c1cc2cc(O)ccc2[nH]1` is 200 nM; for `COCC(=O)Oc1ccc2[nH]c(C(=O)c3cc4ccccc4[nH]3)cc2c1` it is 200 nM; for `O=C(c1cc2ccccc2s1)c1cc2ccccc2s1` it is over 30000 nM.

A further series addresses T1, Epidermal growth factor receptor (Homo sapiens, UniProt P00533). The series is described as follows: Inhibition of EGFR in human A-431 cell membrane vesicles using phospholipase C-gamma-1 as substrate incubated for 10 mins by scintillation counter method. It counts as cell membranes, Membrane vesicle.
For `CN(C)CCNc1ncnc2c1[nH]c1ccccc12`, the IC50 is over 10000 nM.
In turn, `c1ccc2c(c1)[nH]c1c(NC3CCCCC3)ncnc12` came in with an IC50 of over 10000 nM.

Another series concerns the target T2, Proto-oncogene tyrosine-protein kinase Src (Homo sapiens, UniProt P12931). The series is described as follows: Inhibition of src (unknown origin).
The molecule `O=C1/C(=N\c2ccc(Cl)cc2)c2ccccc2N1Cc1ccccc1` returned a 50% inhibitory concentration (IC50) of 106000 nM.

The target in a further series is T1, Epidermal growth factor receptor. The series is described as follows: Inhibition of EGFR derived from human A-431 cells using copolymer of Glu/Ala/Tyr as substrate by scintillation counting method.
`Cc1ccc2c(c1)c(C(=O)Nc1ccccc1)c(SSc1c(C(=O)Nc3ccccc3)c3cc(C)ccc3n1C)n2C` gave a 50% inhibitory concentration (IC50) of over 100000 nM.
Same read-out and setting: the same measure for `Cc1ccc2c(C(=O)Nc3ccccc3)c(SSc3c(C(=O)Nc4ccccc4)c4ccc(C)cc4n3C)n(C)c2c1`: over 100000 nM; for `Cn1c(SSc2c(C(=O)Nc3ccccc3)c3c(O)cccc3n2C)c(C(=O)Nc2ccccc2)c2c(O)cccc21`: over 100000 nM.

Test system in a further series: not listed separately
The series is described as follows: Antiproliferative activity against mouse Swiss-3T3 cells assessed as cell growth inhibition incubated for 72 hrs by cell counter method. The series is classed as toxicity, cell-based.
`Cn1c(SSc2c(C(=O)Nc3ccccc3)c3c(O)cccc3n2C)c(C(=O)Nc2ccccc2)c2c(O)cccc21`: the IC50 at 72 h amounted to 1900 nM.

For a further series, the target named is T2, Proto-oncogene tyrosine-protein kinase Src. The series is described as follows: Inhibition of p60 c-src (unknown origin).
Molecule `O=C(OCCN1CCCCC1)c1cc2ccccc2n1Cc1ccccc1` yielded a 50% inhibitory concentration (IC50) of 1340 nM.

Test system in another series: not listed separately
Briefly: Inhibition of PDGFR (unknown origin). Also noted: species or system Homo sapiens.
As to `Cc1ccccc1-c1nc2c(c3c1[nH]c1ccc(OCc4ccccc4)cc13)C(=O)NC2=O`, the IC50 was over 30000 nM.
`COc1ccc2[nH]c3c(-c4ccccc4)nc4c(c3c2c1)C(=O)N(C)C4=O` came in with an IC50 of over 30000 nM.
On the same count and under the same terms, the same measure for `COc1ccccc1-c1nc2c(c3c1[nH]c1ccc(O)cc13)C(=O)NC2=O`: 10000 nM; for `COc1ccc2[nH]c3c(-c4ccccc4)nc4c(c3c2c1)C(=O)NC4=O`: 3000 nM; for `Cc1ccccc1-c1nc2c(c3c1[nH]c1ccc(O)cc13)C(=O)NC2=O`: over 30000 nM.
The same measure, in the same setting: the same measure for `COc1ccccc1-c1nc2c(c3c1[nH]c1ccc(OCc4ccccc4)cc13)C(=O)NC2=O`: over 30000 nM.
`COc1cc2[nH]c3c(-c4ccccc4)nc4c(c3c2cc1OC)C(=O)NC4=O` showed an IC50 of 1000 nM.
The same measure, in the same setting: the figure for `O=C1NC(=O)c2c1nc(-c1ccccc1)c1[nH]c3ccccc3c21` is over 30000 nM; for `COc1cc2[nH]c3c(-c4ccccc4C)nc4c(c3c2cc1OC)C(=O)NC4=O` it is 1000 nM.

The target of a further series is T1, Epidermal growth factor receptor.
Description: Inhibition of EGFR derived from human A-431 cell membrane vesicles using copolymer of Glu/Ala/Tyr as substrate by scintillation counting method
For `O=C(CCc1c(SSc2[nH]c3ccccc3c2CCC(=O)Nc2ccccc2)[nH]c2ccccc12)Nc1ccccc1`, the concentration for half-maximal inhibition (IC50) was 850 nM.
